# Laboratory results: patent US12637471B2, “Heterocyclic compounds, compositions, methods of preparation and uses thereof” (Organon R&D Finland Ltd, priority 2021, dated 2026)
# How the values were obtained:
# Format in all cases: biochemical
# [1] = biological target: T1, Recombinant human aldo-keto reductase family 1 member C2 (AKR1C2) protein (Homo sapiens, UniProt P52895); assay: Inhibition of the aldo-keto reductase family 1 member C2, 3H-dihydrotestosterone conversion; conditions: inhibitor at 10 μM
# T1 construct: made in house; host or cells: Sf-9 insect cells (baculovirus)
# T1 sequence (P52895 1-323): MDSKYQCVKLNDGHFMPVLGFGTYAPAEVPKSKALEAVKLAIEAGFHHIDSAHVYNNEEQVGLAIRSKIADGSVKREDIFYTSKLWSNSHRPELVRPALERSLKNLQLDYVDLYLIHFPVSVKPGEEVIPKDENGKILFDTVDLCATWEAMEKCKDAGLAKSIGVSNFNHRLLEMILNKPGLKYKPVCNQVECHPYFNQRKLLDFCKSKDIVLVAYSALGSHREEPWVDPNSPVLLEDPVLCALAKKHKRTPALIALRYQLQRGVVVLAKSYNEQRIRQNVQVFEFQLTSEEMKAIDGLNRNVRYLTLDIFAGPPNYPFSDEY
# Method in brief: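 Single-point screen at 10 μM inhibitor, 1% DMSO: [3H]DHT (6.25 nM) reduction to 3α-diol by baculovirus-made AKR1C2 (13.6 nM), pH 7.4 phosphate buffer, 1 mM NADPH, 37 °C for 45 min. Radio-UPLC quantified product versus substrate to give percent inhibition.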
# [2] = biological target: T2, Recombinant human AKR1C3 (17β-HSD5) protein (Homo sapiens, UniProt P42330); assay: Inhibition of AKR1C3 (17β-hydroxysteroid dehydrogenase type 5) enzyme, fluorescence assay; conditions: inhibitor at 500 nM
# T2 construct: made in house; host or cells: E. coli
# T2 sequence (P42330 1-323): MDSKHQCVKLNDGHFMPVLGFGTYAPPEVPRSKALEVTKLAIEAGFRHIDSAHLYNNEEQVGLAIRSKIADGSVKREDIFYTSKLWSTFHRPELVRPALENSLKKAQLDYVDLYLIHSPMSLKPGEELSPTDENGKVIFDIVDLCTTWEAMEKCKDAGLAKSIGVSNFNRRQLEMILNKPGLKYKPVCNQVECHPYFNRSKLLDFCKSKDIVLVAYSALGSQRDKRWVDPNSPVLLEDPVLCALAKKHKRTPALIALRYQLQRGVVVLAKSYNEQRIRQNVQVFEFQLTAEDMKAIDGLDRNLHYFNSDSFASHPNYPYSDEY
# Method in brief: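 Percent inhibition at 500 nM compound, derived from substrate conversion; product alcohol measured by fluorescence (ex 420, em 510 nm) against a 1 μM–10 nM standard curve. Reaction: 27 nM recombinant AKR1C3, 1 μM ketone substrate, 1 mM NADPH, phosphate/EDTA buffer pH 7.4, 1% DMSO, RT for 60–120 min.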
# [3] = biological target: T3, 17β-Hydroxysteroid Dehydrogenase Type 2 Enzyme (17β-HSD2) (Homo sapiens, UniProt P37059); assay: Inhibition of the 17β-hydroxysteroid dehydrogenase type 2 enzyme, 3H-testosterone conversion; conditions: inhibitor at 10 μM
# T3 construct: made in house; host or cells: Sf-9 insect cells (baculovirus)
# T3 sequence (P37059 1-387): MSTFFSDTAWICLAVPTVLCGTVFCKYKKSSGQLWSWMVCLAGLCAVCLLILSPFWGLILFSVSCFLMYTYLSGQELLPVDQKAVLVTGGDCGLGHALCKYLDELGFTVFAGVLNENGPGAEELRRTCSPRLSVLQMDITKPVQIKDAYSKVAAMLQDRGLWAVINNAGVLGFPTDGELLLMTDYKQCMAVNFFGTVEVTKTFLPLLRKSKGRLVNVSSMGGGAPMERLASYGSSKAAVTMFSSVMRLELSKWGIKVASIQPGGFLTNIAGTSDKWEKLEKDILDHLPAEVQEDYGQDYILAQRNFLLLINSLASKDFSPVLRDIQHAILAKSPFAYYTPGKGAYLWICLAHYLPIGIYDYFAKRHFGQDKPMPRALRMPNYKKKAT
# Method in brief: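 Single-point screen at 10 μM inhibitor, 1% DMSO: Sf-9-expressed human enzyme (105 nM), NAD 1 mM, ³H-labelled testosterone 56.25 nM, pH 8.5 phosphate/EDTA buffer, 30 min, room temperature. After TCA quench, substrate and product radioactivity quantified by UPLC with scintillation detection; inhibition percent from conversion.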
smiles,measurement,setting,value
"N#CC(=C1CCN(C(=O)N2CCc3[nH]ncc3C2)CC1)c1cccc2cn[nH]c12 [Compound 71, 2-(1H-indazol-7-yl)-2-(1-(4,5,6,7-tetrahydro-1H-pyrazolo[4,3-c]pyridine-5-carbonyl)piperidin-4-ylidene)acetonitrile]",inhibition at 10 µM,[1],12%
same,inhibition at 0.5 µM,[2],99%
same,inhibition at 10 µM,[3],29%
"N#CC(=C1CCN(C(=O)N2CCn3cncc3C2)CC1)c1cccc2cn[nH]c12 [Compound 72, 2-(1H-indazol-7-yl)-2-(1-(5,6,7,8-tetrahydroimidazo[1,5-a]pyrazine-7-carbonyl)piperidin-4-ylidene)acetonitrile]",inhibition at 10 µM,[1],9%
same,inhibition at 0.5 µM,[2],98%
same,inhibition at 10 µM,[3],26%
"COCC1CCN(C(=O)N2CCC(=C(C#N)c3ccc(F)cc3F)CC2)CC1 [Compound 73, 2-(2,4-difluorophenyl)-2-(1-(4-(methoxymethyl)piperidine-1-carbonyl)piperidin-4-ylidene)acetonitrile]",inhibition at 10 µM,[1],19%
same,inhibition at 0.5 µM,[2],92%
same,inhibition at 10 µM,[3],21%
"N#CC(=C1CCN(C(=O)N2CCC(CO)CC2)CC1)c1ccc(Cl)cc1 [Compound 74, 2-(4-chlorophenyl)-2-(1-(4-(hydroxymethyl)piperidine-1-carbonyl)piperidin-4-ylidene)acetonitrile]",inhibition at 10 µM,[1],9%
same,inhibition at 0.5 µM,[2],98%
same,inhibition at 10 µM,[3],17%
"COCC1CCN(C(=O)N2CCC(=C(C#N)c3ccc(Cl)s3)CC2)CC1 [Compound 75, 2-(5-chlorothiophen-2-yl)-2-(1-(4-(methoxymethyl)piperidine-1-carbonyl)piperidin-4-ylidene)acetonitrile]",inhibition at 10 µM,[1],13%
same,inhibition at 0.5 µM,[2],94%
same,inhibition at 10 µM,[3],23%
"N#CC(=C1CCN(C(=O)N2CCC(CO)CC2)CC1)c1ccc(C(F)(F)F)cc1 [Compound 76, 2-(1-(4-(hydroxymethyl)piperidine-1-carbonyl)piperidin-4-ylidene)-2-(4-(trifluoromethyl)phenyl)acetonitrile]",inhibition at 10 µM,[1],6%
same,inhibition at 0.5 µM,[2],99%
same,inhibition at 10 µM,[3],20%
"N#CC(=C1CCN(C(=O)N2CCC(S(N)(=O)=O)CC2)CC1)c1ccc(Cl)s1 [Compound 77, 1-(4-((5-chlorothiophen-2-yl)(cyano)methylene)piperidine-1-carbonyl)piperidine-4-sulfonamide]",inhibition at 10 µM,[1],24%
same,inhibition at 0.5 µM,[2],96%
same,inhibition at 10 µM,[3],19%
"COC1CCN(C(=O)N2CCC(=C(C#N)c3ccc(Cl)s3)CC2)CC1 [Compound 78, 2-(5-chlorothiophen-2-yl)-2-(1-(4-methoxypiperidine-1-carbonyl)piperidin-4-ylidene)acetonitrile]",inhibition at 10 µM,[1],15%
same,inhibition at 0.5 µM,[2],99%
same,inhibition at 10 µM,[3],27%
"COC1CCN(C(=O)N2CCC(=C(C#N)c3ccc(Cl)cc3)CC2)CC1 [Compound 79, 2-(4-chlorophenyl)-2-(1-(4-methoxypiperidine-1-carbonyl)piperidin-4-ylidene)acetonitrile]",inhibition at 10 µM,[1],6%
same,inhibition at 0.5 µM,[2],99%
same,inhibition at 10 µM,[3],10%
"N#CC(=C1CCN(C(=O)N2CCC(O)CC2)CC1)c1cccc(Cl)c1 [Compound 80, 2-(3-chlorophenyl)-2-(1-(4-hydroxypiperidine-1-carbonyl)piperidin-4-ylidene)acetonitrile]",inhibition at 10 µM,[1],7%
same,inhibition at 0.5 µM,[2],99%
same,inhibition at 10 µM,[3],12%
"COC1CCN(C(=O)N2CCC(=C(C#N)c3ccc(Cl)cn3)CC2)CC1 [Compound 81, 2-(5-chloropyridin-2-yl)-2-(1-(4-methoxypiperidine-1-carbonyl)piperidin-4-ylidene)acetonitrile]",inhibition at 10 µM,[1],-7%
same,inhibition at 0.5 µM,[2],95%
same,inhibition at 10 µM,[3],10%
"COC[C@@H]1CCCN1C(=O)N1CCC(=C(C#N)c2ccc(Cl)cc2)CC1 [Compound 82, (S)-2-(4-chlorophenyl)-2-(1-(2-(methoxymethyl)pyrrolidine-1-carbonyl)piperidin-4-ylidene)acetonitrile]",inhibition at 10 µM,[1],3%
same,inhibition at 0.5 µM,[2],100%
same,inhibition at 10 µM,[3],28%
"N#CC(=C1CCN(C(=O)N2CCc3nocc3C2)CC1)c1ccc(F)cn1 [Compound 84, 2-(5-fluoropyridin-2-yl)-2-(1-(4,5,6,7-tetrahydroisoxazolo[4,3-c]pyridine-5-carbonyl)piperidin-4-ylidene)acetonitrile]",inhibition at 10 µM,[1],6%
same,inhibition at 0.5 µM,[2],98%
same,inhibition at 10 µM,[3],23%
"N#CC(=C1CCN(C(=O)N2CC(CO)C2)CC1)c1ccc(F)cc1 [Compound 85, 2-(4-fluorophenyl)-2-(1-(3-(hydroxymethyl)azetidine-1-carbonyl)piperidin-4-ylidene)acetonitrile]",inhibition at 10 µM,[1],9%
same,inhibition at 0.5 µM,[2],72%
same,inhibition at 10 µM,[3],27%
"N#CC(=C1CCN(C(=O)N2CCC(O)CC2)CC1)c1cncc(Cl)c1 [Compound 86, 2-(5-chloropyridin-3-yl)-2-(1-(4-hydroxypiperidine-1-carbonyl)piperidin-4-ylidene)acetonitrile]",inhibition at 10 µM,[1],0%
same,inhibition at 0.5 µM,[2],80%
same,inhibition at 10 µM,[3],27%
"N#CC(=C1CCN(C(=O)N2CCc3nocc3C2)CC1)c1ccc(C(F)(F)F)cc1 [Compound 87, 2-(1-(4,5,6,7-tetrahydroisoxazolo[4,3-c]pyridine-5-carbonyl)piperidin-4-ylidene)-2-(4-(trifluoromethyl)phenyl)acetonitrile]",inhibition at 10 µM,[1],31%
same,inhibition at 0.5 µM,[2],99%
same,inhibition at 10 µM,[3],23%
"N#CC(=C1CCN(C(=O)N2CCC(CO)CC2)CC1)c1cccc(Cl)c1 [Compound 88, 2-(3-chlorophenyl)-2-(1-(4-(hydroxymethyl)piperidine-1-carbonyl)piperidin-4-ylidene)acetonitrile]",inhibition at 10 µM,[1],13%
same,inhibition at 0.5 µM,[2],99%
same,inhibition at 10 µM,[3],26%
"N#CC(=C1CCN(C(=O)N2CCc3nocc3C2)CC1)c1cccc(Cl)c1 [Compound 89, 2-(3-chlorophenyl)-2-(1-(4,5,6,7-tetrahydroisoxazolo[4,3-c]pyridine-5-carbonyl)piperidin-4-ylidene)acetonitrile]",inhibition at 10 µM,[1],18%
same,inhibition at 0.5 µM,[2],98%
same,inhibition at 10 µM,[3],15%
"N#CC(=C1CCN(C(=O)N2CCC(C(F)(F)F)CC2)CC1)c1ccc(Cl)cc1 [Compound 90, 2-(4-chlorophenyl)-2-(1-(4-(trifluoromethyl)piperidine-1-carbonyl)piperidin-4-ylidene)acetonitrile]",inhibition at 10 µM,[1],9%
same,inhibition at 0.5 µM,[2],99%
same,inhibition at 10 µM,[3],30%
"COC1CCN(C(=O)N2CCC(=C(C#N)c3ccc(F)cc3F)CC2)CC1 [Compound 91, 2-(2,4-difluorophenyl)-2-(1-(4-methoxypiperidine-1-carbonyl)piperidin-4-ylidene)acetonitrile]",inhibition at 10 µM,[1],23%
same,inhibition at 0.5 µM,[2],99%
same,inhibition at 10 µM,[3],23%
"CCOC1CCN(C(=O)N2CCC(=C(C#N)c3cccc4[nH]ncc34)CC2)CC1 [Compound 92, 2-(1-(4-ethoxypiperidine-1-carbonyl)piperidin-4-ylidene)-2-(1H-indazol-4-yl)acetonitrile]",inhibition at 10 µM,[1],6%
same,inhibition at 0.5 µM,[2],96%
same,inhibition at 10 µM,[3],30%
"CC(=O)n1ncc2c(C(C#N)=C3CCN(C(=O)N4CCc5nocc5C4)CC3)cccc21 [Compound 93, 2-(1-acetyl-1H-indazol-4-yl)-2-(1-(4,5,6,7-tetrahydroisoxazolo[4,3-c]pyridine-5-carbonyl)piperidin-4-ylidene)acetonitrile]",inhibition at 10 µM,[1],11%
same,inhibition at 0.5 µM,[2],98%
same,inhibition at 10 µM,[3],23%
